The target in one assay is T1, 5-HT2A receptors (Rattus norvegicus, UniProt P14842).
T1 construct: from tissue; host or cells: rat cortex membranes
Nature of the assay: [3H]-ketanserin binding to 5-HT2A receptors (rat cortex membranes). Here is the method:
Membrane preparations of rat cortex as described previously in the literature were performed. The organs were homogenized in a Potter with the aid of a motor unit (Fisatom) and Teflon piston in the proportion of 20 parts of 50 mM Tris HCl (pH 7.4 at 4° C.) for one piece of material, three times for 30 seconds each time, at intervals the solution was allowed to stand on ice for 1 minute.
Then it was performed a centrifugation at 900×g for 10 minutes at 4° C. It was obtained a […] which was resuspended in solution cold 50 mM Tris-HCl (pH 7.4) and the same procedure was performed once more. The supernatant was then centrifuged at 48,000×g for 10 minutes at 4° C. yielding a pellet which was resuspended at a ratio of 20 parts of 50 mM Tris HCl (pH 7.4 at 4° C.) for one piece of material, and incubated at 37° C. for 10 minutes in order to remove the endogenous neurotransmitters. Finally, centrifugation two times more at 48,000×g was performed for 10 minutes at 4° C., and then the final pellet was resuspended in a solution of 50 mM Tris-HCl (pH 7.4).
The binding assays for 5-HT2A receptors were performed as described in the literature. […] (solvent for dilution of the LDT's), to determine the total binding, or 50 μL non-radioactive ketanserin at 10 μM for the determination of nonspecific binding (final volume of 500 μL). Assays were performed in triplicate.
(§1) After the incubation period, the reaction was stopped by adding 4 ml of ice-cold solution containing 5 mM Tris (pH 7.4), followed by vacuum filtration on glass fiber filter (GMF 3, Filtrak®) previously soaked with solution 0.5% polyethylenoimine The filters were washed three times with 4 mL of ice-cold solution containing 5 mM Tris (pH 7.4) under vacuum to remove all free radioligand. Then the filters were dried and placed in vials containing 5 ml scintillation fluid (4% PPO, 0.1% POPOP w/v in toluene). The radioactivity retained on the filters was then determined in a liquid scintillation counter (Packard Tri-Carb 1600 TR). […] To these receptors were also determined CI50 and Ki parameters.

The next assay deals with T2, 5-HT1A receptors (Rattus norvegicus, UniProt P19327).
T2 construct: Intrinsic Activity at Native 5-HT1A Receptors; from tissue; host or cells: rat hippocampus membranes
T2 sequence (P19327 1-422): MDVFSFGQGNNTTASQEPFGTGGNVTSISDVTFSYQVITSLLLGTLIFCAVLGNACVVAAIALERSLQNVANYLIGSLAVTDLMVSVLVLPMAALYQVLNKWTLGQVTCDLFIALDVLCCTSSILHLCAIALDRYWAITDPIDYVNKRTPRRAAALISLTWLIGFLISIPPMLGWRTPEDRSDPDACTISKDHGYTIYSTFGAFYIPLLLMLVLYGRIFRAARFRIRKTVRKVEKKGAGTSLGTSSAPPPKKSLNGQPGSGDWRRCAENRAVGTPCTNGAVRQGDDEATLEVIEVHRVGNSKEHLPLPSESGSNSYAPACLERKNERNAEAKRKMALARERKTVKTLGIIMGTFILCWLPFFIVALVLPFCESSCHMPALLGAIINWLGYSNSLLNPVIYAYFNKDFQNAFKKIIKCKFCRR
Nature of the assay: Binding of [3H]-8-OH-DPAT to 5-HT1A receptors (rat hippocampus membranes). Here is the method:
Membrane preparations of rat hippocampus according to previously described by HALL et al (1985) and PEROUTKA (1986) were performed. The homogenization and centrifugation steps were performed identically to that described above for receptors α2A and 5-HT2A receptors.
The binding assays for the 5-HT1A receptors were performed as described previously in the literature and previously standardized in the laboratory through saturation experiments. […] (solvent for dilution of LDT's) for the determination of total binding, or 50 μL non-radioative serotonin at 10 μM to determine the non-specific binding (final volume of 500 μL). Assays were performed in triplicate. […] Assays were performed in triplicate.
as §1, with “polyethylenoimine.” for “polyethylenoimine”, “(composition: 4%” for “(4%”, “w/p” for “w/v”, “For” for “To”, “the […]” for “CI50”

Where [1] appears, read: Ki high (nM), Table 13, agonist radioligand [3H] 8-OH-DPAT.
Setting [2] is: Table 10, Cheng-Prusoff, read-out: Ki.
The mark [3] stands for this setting: Table 10, read-out: log CI50 ± EPM (converted).
The mark [4] stands for this setting: Table 11, Cheng-Prusoff, read-out: Ki.
Setting [5] is: Table 8, Cheng-Prusoff, read-out: Ki.
[6] abbreviates: Table 9, agonist radioligand [3H] 8-OH-DPAT, read-out: Ki high.

The values below come from patent US20150011566A1, “N-PHENYLPIPERAZINE DERIVATIVES THAT ARE ANTAGONISTS OF A1A, A1D ADRENOCEPTORS AND 5-HT1A RECEPTORS FOR THE TREATMENT OF BENIGN PROSTATE HYPERPLASIA, PHARMACEUTICAL COMPOSITIONS CONTAINING THE SAME” (UNIVERSIDADE FEDERAL DO RIO DE JANEIRO-UFRJ, priority 2012, published 2015).

Read-outs that look alike come from different tables or passages of the source.

T1 sequence (P14842 whole entry): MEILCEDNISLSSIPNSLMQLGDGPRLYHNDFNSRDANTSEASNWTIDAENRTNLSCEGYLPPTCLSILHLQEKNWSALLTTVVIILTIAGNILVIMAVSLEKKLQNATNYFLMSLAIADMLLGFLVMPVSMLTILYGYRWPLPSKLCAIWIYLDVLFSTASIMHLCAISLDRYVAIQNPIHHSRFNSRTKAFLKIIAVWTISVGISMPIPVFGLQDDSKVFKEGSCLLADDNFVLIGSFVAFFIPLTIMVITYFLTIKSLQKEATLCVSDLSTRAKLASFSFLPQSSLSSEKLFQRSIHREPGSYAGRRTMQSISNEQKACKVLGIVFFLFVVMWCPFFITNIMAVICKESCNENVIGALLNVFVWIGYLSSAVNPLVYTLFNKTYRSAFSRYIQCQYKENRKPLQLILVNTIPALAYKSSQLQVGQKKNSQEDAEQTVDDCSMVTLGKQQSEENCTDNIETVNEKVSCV

A word on the Ki: it is the dissociation constant of the complex between target and ligand, obtained from inhibition or displacement. On to `COc1ccccc1N1CCN(CCc2ccccc2)CC1` [LDT 2], for which the IC50 was 74.1 nM at 5-HT2A receptors and 3.02 nM at 5-HT1A receptors. Besides, the Ki on 5-HT2A receptors is 47.4 nM; at 5-HT1A receptors (KI (M), Table 7, Cheng-Prusoff) it was 1.24e-09 M.
As to `COc1cccc(CCN2CCN(c3ccccc3OC)CC2)c1` [LDT 3], the figures for the IC50 on 5-HT2A receptors and on 5-HT1A receptors were 70.8 nM and 2.75 nM, respectively. Moreover, the inhibition constant (Ki) on 5-HT2A receptors was 45.2 nM; on 5-HT1A receptors (KI (M), Table 7, Cheng-Prusoff), 1.13e-09 M; on 5-HT1A receptors (setting [1]), 1.79e-09 M.
`COc1ccc(CCN2CCN(c3ccccc3OC)CC2)cc1` [LDT 4]: the figures for the IC50 on 5-HT2A receptors and on 5-HT1A receptors were 69.2 nM and 2.4 nM, respectively. In addition, the Ki was 44.2 nM at 5-HT2A receptors and 9.88e-10 M at 5-HT1A receptors (KI (M), Table 7, Cheng-Prusoff).
Turning to `COc1ccc(CCN2CCN(c3ccccc3OC)CC2)cc1OC` [LDT 5], the IC50 was 389 nM on 5-HT2A receptors and 6.17 nM on 5-HT1A receptors. The Ki at 5-HT2A receptors was determined as 248 nM; on 5-HT1A receptors (KI (M), Table 7, Cheng-Prusoff), 2.54e-09 M; on 5-HT1A receptors (setting [1]) it was 3.89e-09 M.
With `COc1ccccc1N1CCN(CCC2CCCCC2)CC1` [LDT 6], the Ki is 376 nM at 5-HT2A receptors (setting [2]) and 2.42e-10 M on 5-HT1A receptors (Table 7, Cheng-Prusoff, read-out: KI). The IC50 at 5-HT2A receptors (setting [3]) was 589 nM; on 5-HT1A receptors (Table 7, read-out: log CI50 ± EPM (converted)), 0.589 nM.
For `CCOc1ccccc1N1CCN(CCc2ccc3c(c2)OCO3)CC1` [LDT 8], the Ki on 5-HT2A receptors (setting [2]) was 248 nM; at 5-HT1A receptors (setting [1]), 1.8e-11 M; on 5-HT1A receptors (Ki, text b157), 2.37e-11 M. The values for the IC50 at 5-HT2A receptors (setting [3]) and on 5-HT1A receptors were 389 nM and 0.0575 nM, respectively.
As for `CCN1CCN(c2ccccc2)CC1` [LDT 39], the “log IC50 (M)” value on 5-HT2A receptors (Table 11) was −5.16 ± 0.16 M; at 5-HT1A receptors (Table 8), −5.93 ± 0.13 M. For the same molecule, the Ki was determined as 4440 nM at 5-HT2A receptors (setting [4]) and 5.2e-07 M at 5-HT1A receptors (setting [5]).
Turning to `CCN1CCN(c2ccccc2OC)CC1` [LDT 62], the “log IC50 (M)” value is given as −5.00 ± 0.06 M on 5-HT2A receptors (Table 11) and −6.47 ± 0.10 M at 5-HT1A receptors (Table 8). Also, the Ki at 5-HT2A receptors (setting [4]) amounted to 6410 nM; on 5-HT1A receptors (setting [5]) it was 1.47e-07 M.
The like results for `CCCN1CCN(c2ccccc2OC)CC1` [LDT 63] were, in that order, −4.86 ± 0.13 M, −6.37 ± 0.03 M, 8850 nM and 1.91e-07 M.
The like results for `CCCCN1CCN(c2ccccc2OC)CC1` [LDT 64] were, in that order, −5.06 ± 0.09 M, −6.72 ± 0.19 M, 5580 nM and 8.4e-08 M.
As for `CCCCCN1CCN(c2ccccc2OC)CC1` [LDT 65], the IC50 on 5-HT2A receptors was 4570 nM; on 5-HT1A receptors, 38 nM. Further, the inhibitory constant (Ki) at 5-HT2A receptors was found to be 2930 nM; on 5-HT1A receptors (Ki (nM), Table 8, Cheng-Prusoff), 1.8e-08 M; at 5-HT1A receptors (Ki high (nM), Table 9, agonist radioligand [3H] 8-OH-DPAT) it was 1.8e-08 M.
Regarding `CCCCCCN1CCN(c2ccccc2OC)CC1` [LDT 66], the “log IC50 (M)” value at 5-HT2A receptors (Table 11) is given as −5.57 ± 0.16b M; at 5-HT1A receptors (Table 8), −7.93 ± 0.20a M. The Ki on 5-HT2A receptors (setting [4]) was 1720 nM; on 5-HT1A receptors (setting [5]) it was 5e-09 M; at 5-HT1A receptors (setting [6]) it was 5e-09 M.
On to `CCCCCCCN1CCN(c2ccccc2OC)CC1` [LDT 67], for which the “log IC50 (M)” value is recorded as −5.53 ± 0.13b M at 5-HT2A receptors (Table 11) and −7.42 ± 0.19b M at 5-HT1A receptors (Table 8). In addition, the results for the Ki at 5-HT2A receptors (setting [4]), on 5-HT1A receptors (setting [5]) and on 5-HT1A receptors (setting [6]) were 1890 nM, 1.8e-08 M and 1.8e-08 M, respectively.
As to `CCCCCCCCN1CCN(c2ccccc2OC)CC1` [LDT 68], the “log IC50 (M)” value at 5-HT2A receptors (Table 11) is recorded as −5.64 ± 0.08b M; on 5-HT1A receptors (Table 8), −7.70 ± 0.30b M. Moreover, the results for the Ki at 5-HT2A receptors (setting [4]), at 5-HT1A receptors (setting [5]) and at 5-HT1A receptors (setting [6]) were 1470 nM, 9e-09 M and 9e-09 M, respectively.
`CCOc1ccccc1N1CCN(CC)CC1` [LDT 69]: the “log IC50 (M)” value on 5-HT2A receptors (Table 11) is −5.02 ± 0.06 M; on 5-HT1A receptors (Table 8), −6.86 ± 0.30 M. Besides, the Ki is 6120 nM at 5-HT2A receptors (setting [4]) and 6.2e-08 M at 5-HT1A receptors (setting [5]).
The like results for `CCN1CCN(c2ccccc2O)CC1` [LDT 70] were, in that order, −4.20 ± 0.03a M, −6.15 ± 0.08 M, 40400 nM and 3.16e-07 M.
In turn, `CCOc1ccccc1N1CCN(CCc2ccc(OC)c(OC)c2)CC1` [LDT 245] showed an IC50 on 5-HT1A receptors of 9.33 nM. Besides, the affinity at 5-HT1A receptors (KI (M), Table 7, Cheng-Prusoff), expressed as Ki, was 3.8e-09 M.
